Counter-ions that a name gives are not always drawn. Starred links: 1 amine or outer side, 2 acyl side, 3 side chain; linkers in the order of their positions; H or OH if unused. Positions of bridges follow the written chain, without caps; N, C: chain ends. Non-standard residues stand in square brackets, D forms with d. Residues, ends and D or L forms follow the SMILES beside them. Chains are numbered I, II in the order given. Actinocin(9to1) = Cc1c2oc3c(C)ccc(C(=O)[*:1])c3nc-2c(C(=O)[*:2])c(N)c1=O; NMeV = CN[C@H](C(=O)O)C(C)C; Sar = CNCC(=O)O
Tested on: HT29 RAMS11 overexpressing cells
Experiment: High-throughput viability assay (resazurin), 119 FDA-approved anticancer drugs, RAMS11 overexpressing cells (Clone1, Clone2)
Conditions: 72 h, vs empty vector control
[1] = OE1 (RAMS11 overexpression clone 1), 0.1 uM drug
[2] = OE1 (RAMS11 overexpression clone 1), 1 uM drug
[3] = OE1 (RAMS11 overexpression clone 1), 10 uM drug
[4] = OE2 (RAMS11 overexpression clone 2), 0.1 uM drug
[5] = OE2 (RAMS11 overexpression clone 2), 1 uM drug
[6] = OE2 (RAMS11 overexpression clone 2), 10 uM drug

Method: The FDA-approved anticancer panel included multiple classes of drugs such as kinase inhibitors, alkylating agents, antineoplastic antibiotics, anthracycline antibiotics, and antineoplastic agents (topoisomerase inhibitors). The HT29 RAMS11 overexpressing and control cells were treated for 72 h to assess cellular viability upon drug treatment (FIG. 14a and TABLE 3). […] Due to 5-FU commonly used to treat mCRC, we further determined if RAMS11 expression altered drug sensitivity in treated cells.
Drugs were diluted in DMSO to 1 mM and the well assignments were rearranged so drugs were confined to the inner 60 wells of 96-well plates. […] The next day serial diluted drug was added to pre-seeded plates in media containing 1% DMSO vehicle, using a Robbins Hydra 96 micro dispenser. Two 96-well plates of cells were used as vehicle controls. The plates were incubated for 3 days. Percent viability was scored by incubating cells for 3 h with resazurin sodium (0.023 mg/mL, Sigma R7017). The reaction was stopped by the addition of SDS (1% final concentration). Fluorescence Ex/Em 540/590 was read in a Biotek Synergy H1 plate reader (Winooski, VT). The fluorescence values for the vehicle plates were averaged and percent viability was determined by the formula: Percent viability=(average vehicle−value)/(average vehicle−average resazurin in media blank)×100. […] Assays were repeated more than three times.

Compound | Viability Fold Change [1] | Viability Fold Change [2] | Viability Fold Change [3] | Viability Fold Change [4] | Viability Fold Change [5] | Viability Fold Change [6]
N[C@@H](Cc1ccc(N(CCCl)CCCl)cc1)C(=O)O [Melphalan] | 0.9214 | 1.006 | 0.9782 | 0.9479 | 1.068 | 0.9942
Nc1nc(Cl)nc2c1ncn2[C@@H]1O[C@H](CO)[C@@H](O)[C@@H]1F [Clofarabine] | 0.9141 | 1.361 | 2.473 | 1.012 | 1.421 | 2.375
Nc1cccc2c1CN(C1CCC(=O)NC1=O)C2=O (stereo not drawn) [Lenalidomide] | 0.9659 | 1.021 | 0.9664 | 0.9115 | 1.009 | 0.8902
COc1c2occc2cc2ccc(=O)oc12 [Methoxsalen] | 0.9521 | 0.971 | 0.7883 | 0.8888 | 0.9485 | 0.9406
CO[C@H]1C[C@@H]2CC[C@@H](C)[C@@](O)(O2)C(=O)C(=O)N2CCCC[C@H]2C(=O)O[C@H]([C@H](C)C[C@@H]2CC[C@@H](OC(=O)C(C)(CO)CO)[C@H](OC)C2)CC(=O)[C@H](C)/C=C(\C)[C@@H](O)[C@@H](OC)C(=O)[C@H](C)C[C@H](C)/C=C/C=C/C=C/1C [Temsirolimus] | 0.7059 | 0.6733 | 0.6861 | 0.6816 | 0.7302 | 0.693
CC(=O)O[C@]1(C(C)=O)CC[C@H]2[C@@H]3C=C(C)C4=CC(=O)CC[C@]4(C)[C@H]3CC[C@@]21C [Megestrol acetate] | 0.8922 | 1.034 | 0.9961 | 0.8949 | 0.9578 | 0.9016
O=C(CCBr)N1CCN(C(=O)CCBr)CC1 [Pipobroman] | 0.9413 | 0.9838 | 0.9918 | 0.9432 | 0.9438 | 0.8949
O=P(O)(O)C(O)(Cn1ccnc1)P(=O)(O)O [Zoledronic acid] | 0.9494 | 0.9911 | 1.01 | 0.9595 | 1.055 | 1.082
NCCCNCCSP(=O)(O)O [Amifostine] | 0.9539 | 1.024 | 1.063 | 0.99 | 1.063 | 1.167
CS(=O)(=O)CCNCc1ccc(-c2ccc3ncnc(Nc4ccc(OCc5cccc(F)c5)c(Cl)c4)c3c2)o1 [Lapatinib] | 1.034 | 1.269 | 1.357 | 1.216 | 1.285 | 1.391
CO[C@H]1C(=O)[C@]2(C)[C@@H](OC)C[C@H]3OC[C@@]3(OC(C)=O)[C@H]2[C@H](OC(=O)c2ccccc2)[C@]2(O)C[C@H](OC(=O)[C@H](O)[C@@H](NC(=O)OC(C)(C)C)c3ccccc3)C(C)=C1C2(C)C [Cabazitaxel] | 2.975 | 3.231 | 2.607 | 2.745 | 2.869 | 2.506
Dabrafenib mesylate | 0.7923 | 0.8383 | 0.912 | 0.7733 | 0.8008 | 0.913
O=NN(CCCl)C(=O)NCCCl [Carmustine] | 1.007 | 0.9864 | 0.8696 | 1.005 | 1.079 | 1.04
CCN(CC)CCNC(=O)c1c(C)[nH]c(/C=C2\C(=O)Nc3ccc(F)cc32)c1C [Sunitinib] | 0.8337 | 0.8856 | 0.2329 | 0.914 | 0.9165 | 0.5714
Nc1nc(Cl)nc2c1ncn2[C@H]1C[C@H](O)[C@@H](CO)O1 [Cladribine] | 0.8736 | 1.321 | 1.949 | 0.9358 | 1.327 | 1.86
COc1cccc2c1C(=O)c1c(O)c3c(c(O)c1C2=O)C[C@@](O)(C(=O)CO)C[C@@H]3O[C@H]1C[C@H](N)[C@@H](O)[C@H](C)O1 [Epirubicin hydrochloride] | 1.025 | 1.822 | 2.19 | 1.023 | 1.861 | 1.999
O=C(c1ccc(OCCN2CCCCC2)cc1)c1c(-c2ccc(O)cc2)sc2cc(O)ccc12 [Raloxifene] | 0.9457 | 0.9244 | 0.9067 | 0.9401 | 0.9282 | 0.9671
COc1cc(Nc2c(C#N)cnc3cc(OCCCN4CCN(C)CC4)c(OC)cc23)c(Cl)cc1Cl [Bosutinib] | 1.048 | 1.013 | 1.477 | 1.022 | 1.04 | 1.608
CNC(=O)c1cc(Oc2ccc(NC(=O)Nc3ccc(Cl)c(C(F)(F)F)c3)cc2)ccn1 [Sorafenib] | 0.8542 | 0.8177 | 1.022 | 0.8959 | 0.8971 | 1.017
COc1cc([C@@H]2c3cc4c(cc3C(O[C@@H]3O[C@@H]5CO[C@@H](C)O[C@H]5[C@H](O)[C@H]3O)C3COC(=O)[C@@H]32)OCO4)cc(OC)c1O (stereo partly drawn) [Etopside] | 1.144 | 1.073 | 1.161 | 1.13 | 0.9992 | 1.196
Cc1c2oc3c(C)ccc(C(=O)N[C@@H]4C(=O)N[C@H](C(C)C)C(=O)N5CCC[C@H]5C(=O)N(C)CC(=O)N(C)[C@@H](C(C)C)C(=O)O[C@@H]4C)c3nc-2c(C(=O)N[C@@H]2C(=O)N[C@H](C(C)C)C(=O)N3CCC[C@H]3C(=O)N(C)CC(=O)N(C)[C@@H](C(C)C)C(=O)O[C@@H]2C)c(N)c1=O [Dactinomycin] (I: T[dV]P[Sar][NMeV] / II: T[dV]P[Sar][NMeV]; ester I:1-I:C, II:1-II:C; linker I:N-II:N via Actinocin(9to1)) | 1.513 | 1.552 | 2.719 | 1.417 | 1.475 | 2.498
